We go through 4 compounds from patent US20100314319A1, “HALOGENATED AMIDES AS BIOCIDES FOR BIOFILM CONTROL” (priority 2009, published 2010).

The structures appear in SMILES notation. Read-outs that look alike come from different tables or passages of the source.

Data set [1] has as its system Biofilms of P. aeruginosa ATCC 10145. Description: Efficacy against biofilm associated bacteria (Calgary biofilm device, viable sessile bacteria). Particulars: pH 8.5, 37° C. It is filed as cell-based. The protocol:
Biofilms of P. aeruginosa ATCC 10145 are grown in Calgary biofilm devices (Innovotech, Alberta, Canada) for 42 hours. Trypticase Soy Broth (TSB) is used in the biofilm devices as the culture medium. After the incubation period, loosely associated cells are removed from the biofilms that develop on the surfaces of the submerged pegs by rinsing with sterile 0.85% NaCl. The biofilms are than treated with DBMAL (inventive biocide), glutaraldehyde (comparative biocide), or DBNPA (comparative biocide). A dilute salts solution is used as the test medium for the efficacy studies. The salts solution contains (in grams per liter of deionized water) CaCl2, 0.2203 g; MgSO4, 0.1847 g; and NaHCO3, 0.2033 g. The final pH of the solution is adjusted to 8.5.
The concentrations of each active tested are 100 ppm, 50 ppm, 25 ppm, 12.5 ppm in the salts solution and the contact times are for 4 hours, 24 hours and 48 hours, respectively. In all cases, the incubation temperature is 37° C. Sterile deionized water is used as a non-biocide treated control. After each contact time, the pegs are washed with sterile 0.85% NaCl and the bacteria are released from the biofilm on the surface of each peg into sterile 0.85% NaCl by sonication (see Ceri et al., Journal of Clinical Microbiology 1999, 37: 1771-1776). The viable bacteria are then enumerated in TSB, using a serial dilution method.

Data set [2] has the same test system. As to the kind of experiment: Biofilm removal evaluation (crystal violet, OD 580 nm). It is filed as cell-based. The note with it: 25, 50, 100 ppm, 4 hr and 24 hr, 37° C. As for the experimental part: The Calgary biofilm device is used to prepare biofilms of P. aeruginosa ATCC 10145. TSB is used as the culture medium and biofilms are allowed to develop over a period of 42 hours. […] Concentrations of the actives tested are 25 ppm, 50 ppm, 100 ppm in sterile diluted salts solution as the test medium. The treatment is conducted at 37° C. for 4 hr and 24 hr, respectively. Sterile deionized water is used as an untreated control. After treatment, the pegs are washed with sterile 0.85% NaCl and then the biomass/biofilm on each peg is measured (see Stepanovic et al., Journal of Microbiological Methods, 2000, 40, 175-179). First the biofilm is fixed with 99% methanol and, after air drying, the pegs are stained with 2% (w/v) crystal violet and washed with tap water. The pegs are then air dried and the crystal violet bound to the biofilm is extracted with 33% glacial acetic acid. The optical density (OD) of the extracted solution is measured at 580 nm. The results are depicted in FIG. 2.

Data set [3] deals with amoeba fed Legionella pneumophila (AfLp). It is filed as cell-based. Particulars: for Active concentration required for complete kill (6 log reduction): Amoeba fed Legionella.
For data set [4] the following is noted: buffer.
The nature of data set [5]: Stability against hydrolysis (HPLC level remaining in buffered dilute solutions).
For the next data set, the system named is Free Legionella. Format: cell-based, Legionella pneumophila.

Turning to `NC(=O)C(Br)(Br)C(N)=O` [DBMAL, 2,2-Dibromomalonamide], the “effectiveness against sessile bacteria (reduction of viable sessile bacteria)” value was “more effective than DBNPA” in data set [1] (12.5-100 ppm, 4, 24 and 48 hours, in general); “very effective” in data set [1] (25 ppm active concentration, efficacy increases with contact time). Also, the biofilm removal result in data set [2] was “overall better biofilm removal than DBNPA”. Further, the “level needed for 6 log kill of AfLp relative to that needed for free cells” value in data set [3] (corresponding time points (2 and 24 hours)) is on record as “about twice”. Also, the “level remaining (HPLC)” value in data set [4] (0 h, pH 6.9) was determined as 3746; in data set [4] (0 h, pH 8), 3866; in data set [4] (0 h, pH 9), 4576; in data set [4] (2 h, pH 6.9), 4612; in data set [4] (2 h, pH 8), 4031; in data set [4] (2 h, pH 9), 4022. Also, the “level remaining (HPLC)” value is 3857 in data set [4] (24 h, pH 6.9); 4191 in data set [4] (24 h, pH 8); 3891 in data set [4] (24 h, pH 9); 3935 in data set [4] (48 h, pH 6.9); 4187 in data set [4] (48 h, pH 8); 3603 in data set [4] (48 h, pH 9). Moreover, the “level remaining (HPLC)” value was 3966 in data set [4] (72 h, pH 6.9); 4290 in data set [4] (72 h, pH 8); 4018 in data set [4] (72 h, pH 9); 4212 in data set [4] (96 h, pH 6.9); 3883 in data set [4] (96 h, pH 8); 3456 in data set [4] (96 h, pH 9). The “Calculated Percent Reduction of the Active Ingredient” value in data set [5] (pH 6.9, T = 30 C., 48 hours) was 0%; in data set [5] (pH 6.9, T = 30 C., 72 hours), 0%; in data set [5] (pH 8, T = −1 C., 48 hours), 0%; in data set [5] (pH 8, T = −1 C., 72 hours), 0%; in data set [5] (pH 8, T = −1 C., 96 hours) it was 0%; in data set [5] (pH 9, T = −1 C., 48 hours), 21%. Further, the “Calculated Percent Reduction of the Active Ingredient” value in data set [5] (pH 9, T = −1 C., 72 hours) is on record as 12%; in data set [5] (pH 9, T = −1 C., 96 hours), 24%.
Take `N#CC(Br)(Br)C(N)=O` [DBNPA, 2,2-Dibromo-3-nitrilopropionamide]: the “level remaining (HPLC)” value in data set [5] (pH 6.9, T = 30 C., 0 hours) is listed as 3991; in data set [5] (pH 6.9, T = 30 C., 2 hours) it was 4155; in data set [5] (pH 6.9, T = 30 C., 24 hours), 2557; in data set [5] (pH 6.9, T = 30 C., 48 hours) it was 1361; in data set [5] (pH 6.9, T = 30 C., 72 hours), 918; in data set [5] (pH 6.9, T = 30 C., 96 hours), 658. For the same compound, the “level remaining (HPLC)” value in data set [5] (pH 8, T = −1 C., 0 hours) is reported as 4068; in data set [5] (pH 8, T = −1 C., 2 hours), 3998; in data set [5] (pH 8, T = −1 C., 24 hours) it was 3506; in data set [5] (pH 8, T = −1 C., 48 hours), 3578; in data set [5] (pH 8, T = −1 C., 72 hours), 3149; in data set [5] (pH 8, T = −1 C., 96 hours), 3070. For the same compound, the “level remaining (HPLC)” value in data set [5] (pH 9, T = −1 C., 0 hours) is 3842; in data set [5] (pH 9, T = −1 C., 2 hours), 2818; in data set [5] (pH 9, T = −1 C., 24 hours) it was 1256; in data set [5] (pH 9, T = −1 C., 48 hours), 659; in data set [5] (pH 9, T = −1 C., 72 hours) it was 363; in data set [5] (pH 9, T = −1 C., 96 hours), 239.
Take `CCCCCCCCCC[N+](C)(C)CCCCCCCCCC.[Cl-]` [DDAC, didecyl dimethyl ammonium chloride]: the “Active concentration required for complete kill (6 log reduction)” value was 20 ppm in the data set with Free Legionella (2 hours exposure), 15 ppm with Free Legionella (24 hours exposure), 60 ppm in data set [3] (2 hours exposure) and 40 ppm in data set [3] (24 hours exposure).
On to `O=CCCCC=O` [Glutaraldehyde], for which, in data set [1] (50 ppm active concentration, 48 h treatment), the “effectiveness against sessile bacteria (reduction of viable sessile bacteria)” value is listed as “low effectiveness”. The “Active concentration required for complete kill (6 log reduction)” value is recorded as 10 ppm in the data set on Free Legionella (2 hours exposure), 5 ppm in the data set with Free Legionella (24 hours exposure), 20 ppm in data set [3] (2 hours exposure) and 15 ppm in data set [3] (24 hours exposure).
